Data set [1] deals with P. aeruginosa ATCC 27853. The settings on record: soluble free form, 1 μM, within 20 minutes in PBS.
The test system of data set [2] is P. aeruginosa ATCC 27853. Briefly: Bactericidal activity in the presence of reflex human tears. It is filed as cell-based, Pseudomonas aeruginosa. Particulars: 10 μM or 20 μM peptide, 50% or 70% reflex tears. How it is done: FIG. 3A: Bacterial cells were incubated with 10 μM or 20 μM peptide in the presence of 50% reflex tears induced by onion vapors and pooled from three consenting adult volunteers with a normal ocular surface. FIG. 3B: Bacteria were incubated with 20 μM peptide in the presence of 70% reflex tears. In both cases, aliquots were withdrawn for cell counting at different time intervals. Mean data, expressed as the percentage of bacteria killed by the peptide are shown.
2×10^6 CFU/ml P. aeruginosa (ATCC 27853) were incubated with 10μM or 20μM Esc-1a(1-21)NH2 in the presence of 50% (FIG. 3A) or 70% (FIG. 3B) human reflex tears and aliquots withdrawn, plated and counted after 30, 90 and 120 minutes (n=3).

For data set [3], the system named is P. aeruginosa ATCC 27853. Briefly: Bactericidal activity in the presence of basal human tears. The format is cell-based, Pseudomonas aeruginosa. The settings on record: for percentage of bacteria killed: 20 μM peptide, 90 minutes. The method, then:
FIGS. 2A-2B show the effects of human basal tears on the bactericidal activity of Esc-1a(1-21)NH2 against P. aeruginosa ATCC 27853 (FIG. 2A) and ATCC 19660 (FIG. 2B). Bacterial cells were incubated with the peptide in the presence of different concentrations of tears collected from eighteen consenting adult volunteers with normal ocular surface and pooled. Aliquots were withdrawn for cell counting at different time intervals. Mean data (n=3), expressed as the percentage of bacteria killed by the peptide are shown. *Indicates significant difference, p<0.05.
2×10^6 CFU/ml P. aeruginosa (ATCC 27853 or ATCC 19660) were incubated with 1-20 μM Esc-1a(1-21)NH2 in the presence of 50% or 70% v/v tears and aliquots withdrawn, plated and counted after 30, 90 and 120 minutes (n=3).

Data set [4] relates to Pseudomonas aeruginosa. The method, then:
(§1) To determine the minimum inhibitory concentration (MIC) of Esc-1a(1-21)NH2 that causes total inhibition of microbial growth against Pseudomonas aeruginosa and Staphylococcal strains, the following experiment (using P. aeruginosa ATCC 19660 as an example) was performed. MIC was determined using the 96 well micro-plate dilution assay. The test was performed in triplicate wells and Esc-1a(1-21)NH2 was serially diluted to give concentrations of 0.125 μM to 64 μM.
(§2) Day 1: Picked a colony from a P. aeruginosa ATCC19660 streak plate, inoculated in to nutrient broth and incubated overnight at 37° C. with shaking (250 rpm) Day 2 Steps: Removed 100 μl of the bacterial suspension and inoculated into 50 ml of fresh broth. Incubated for 2.5 hours with vigorous shaking (250 rpm) at 37° C. to achieve mid-log phase growth. Centrifuged the 50 ml culture at 3100 g for 10 minutes; discarded supernatant and resuspended pellet in 2 ml Muller-Hinton broth (MHB). Adjusted the optical density (OD) of the bacterial culture to 0.2 at 620 nm (corresponds to ˜10^7 CFU/ml) and diluted to 2×10^6 CFU/ml using MHB media. Thawed an aliquot of the peptide on ice. Pipetted 90 μl of MHB into wells A1, B1 and C1 and 50 μl of MHB media into A2-C2 through A12-C12. Added 10 μl of Esc-1a(1-21)NH2 into wells A1, B1 and C1 and performed serial twofold dilutions of peptide in a volume of 50 μl from column 1 to column 10 (i.e. transferred 50 μl from A1, B1 and C1 to A2, B2 and C2 and so on till A10-C10). […] Pipetted 50 μl of the diluted P. aeruginosa ATCC 19660 in to each well using a multichannel pipette (final concentration was 1×10^5 bacteria in 100 μl volume). Wrapped the plate using parafilm to prevent evaporation and incubated in a shaker incubator (150 rpm) at 37° C. for 18-24 h.
(§3) Day 3 Steps: Read the plate using the spectrophotometer at 590 nm after examining the plates visually for turbidity. Generated spot plates to check for bacterial growth by plating out the contents of the first 3 wells showing no visible growth of bacteria onto MHA plates. Plated dilutions in duplicate and incubated the plates at 37° C. for 18 hr.
(§4) Day 4: Counted the number of colonies on the agar plates and plotted the data.

Data set [5] concerns Staphylococcus aureus. The settings on record: Staphylococcus aureus n. 6 ME, clinical ocular isolate. How it is done:
as §1, §2, §3, §4

For data set [6], the system named is Staphylococcus hominis. The settings on record: Staphylococcus hominis n. 1 ME, clinical ocular isolate. The method, then: as §1, §2, §3, §4
The test system of data set [7] is Staphylococcus epidermidis. Particulars: Staphylococcus epidermidis n. 21 (326) ME, clinical ocular isolate. The method, then: as §1, §2, §3, §4
Data set [8] in a line: MTT viability assay, A549 cells. The settings on record: human. The method, then:
Cell viability is expressed as percentage with respect to the control (cells not treated with the peptides). Data points represent the mean of triplicate samples ±SEM. […] The levels of statistical significance between the two peptides are indicated as follows: **p<0.01, ***p<0.001.
Cells were plated in wells of a microtiter plate, at 4×10^4 cells/well in DMEM supplemented with 2 mM glutamine and 2% FBS (for A549 cells) or DMEM containing 2 mM glutamine, non-essential amino acids (NEAA), sodium pyruvate and 2% FBS (for Raw 264.7 macrophages). After overnight incubation at 37° C. in a 5% CO2 atmosphere, the medium was replaced with 100 μl fresh serum-free medium supplemented with the peptides at different concentrations. After 24 h of peptide treatment, cell viability was determined by a MTT assay.
For orientation: Tetrazolium dyes change colour on reduction, which living cells bring about.

Values after ≈ are worked out from the molar mass of the structure shown. Read-outs that look alike come from different tables or passages of the source. Residues, ends and D or L forms follow the SMILES beside them.

`CC[C@H](C)[C@H](NC(=O)CN)C(=O)N[C@@H](Cc1ccccc1)C(=O)N[C@@H](CO)C(=O)N[C@@H](CCCCN)C(=O)N[C@@H](CC(C)C)C(=O)N[C@@H](C)C(=O)NCC(=O)N[C@@H](CCCCN)C(=O)N[C@@H](CCCCN)C(=O)N[C@H](C(=O)N[C@@H](CCCCN)C(=O)N[C@@H](CC(N)=O)C(=O)N[C@@H](CC(C)C)C(=O)N[C@@H](CC(C)C)C(=O)N[C@H](C(=O)N[C@@H](CO)C(=O)NCC(=O)N[C@@H](CC(C)C)C(=O)N[C@@H](CCCCN)C(=O)NCC(N)=O)[C@@H](C)CC)[C@@H](C)CC` [Esc-1a(1-21)NH2] (H-GIFSKLAGKKIKNLLISGLKG-NH2; N-terminus assumed) yielded a killing in data set [1] of approximately 99.9%. The “retention of activity in reflex tears” value in data set [2] is “activity was retained”. The “percentage of bacteria killed” value is reported as 100% in data set [3] (50% v/v basal tears) and 70% in data set [3] (70% v/v basal tears). For the same compound, the “retention of activity in basal tears” value in data set [3] (1-20 μM peptide, 50% or 70% v/v basal tears) is recorded as “the majority of Esc-1a(1-21)NH2 activity was retained”. For the same compound, in data set [4] (P. aeruginosa clinical isolates), the MIC values range lay in the range of 2 to 8 µM. Besides, the MIC in data set [4] (Pseudomonas aeruginosa 1 Rm, clinical ocular isolate) is 4 µM (≈ 8.74 µg/mL); in data set [4] (Pseudomonas aeruginosa ATCC 19660, reference strain) it was 16 µM (≈ 35 µg/mL); in data set [4] (Pseudomonas aeruginosa R1, clinical ocular isolate), 2 µM (≈ 4.37 µg/mL); in data set [4] (Pseudomonas aeruginosa n. 2 ME, clinical ocular isolate) it was 8 µM (≈ 17.5 µg/mL); in data set [4] (Pseudomonas aeruginosa n. 3, clinical ocular isolate) it was 8 µM (≈ 17.5 µg/mL); in data set [5], 64 µM (≈ 140 µg/mL). The MIC in data set [6] was 1 µM (≈ 2.18 µg/mL); in data set [7] it was 8 µM (≈ 17.5 µg/mL). Further, in data set [8], the midpoint of cytotoxicity, the CC50 at 24 h, lay at 150 µM.

One may read the MIC as the lowest concentration that inhibits growth of the organism. For orientation: CC50 means the concentration that lowers cell viability or growth by half.

The record behind these values is patent US11110195B2, “Esculentin 1a derivatives and uses thereof” (University of Houston System, priority 2013, dated 2021).
